Experimental findings from patent publication US7385026B1, “Modified ghrelin polypeptides” (priority 1999, dated 2008) are described below.

Several values for one entry are separate records, joined by “and”; a condition that tells them apart may be missing. Equal values may be shown once. Square brackets hold non-standard residues; d marks the D form. Peptide text beside a SMILES is read from it. d2Nal = N[C@H](Cc1ccc2ccccc2c1)C(=O)O; Aib = CC(C)(N)C(=O)O A value given as a limit tells only on which side of the number the result lay.

One assay deals with T1, rat GHS-receptor (GHR-R) (Rattus norvegicus, UniProt O08725).
T1 construct: A full-length cDNA for rat GHR-R was obtained by RT-PCR; expressed in transfected cells
T1 sequence (O08725 whole entry): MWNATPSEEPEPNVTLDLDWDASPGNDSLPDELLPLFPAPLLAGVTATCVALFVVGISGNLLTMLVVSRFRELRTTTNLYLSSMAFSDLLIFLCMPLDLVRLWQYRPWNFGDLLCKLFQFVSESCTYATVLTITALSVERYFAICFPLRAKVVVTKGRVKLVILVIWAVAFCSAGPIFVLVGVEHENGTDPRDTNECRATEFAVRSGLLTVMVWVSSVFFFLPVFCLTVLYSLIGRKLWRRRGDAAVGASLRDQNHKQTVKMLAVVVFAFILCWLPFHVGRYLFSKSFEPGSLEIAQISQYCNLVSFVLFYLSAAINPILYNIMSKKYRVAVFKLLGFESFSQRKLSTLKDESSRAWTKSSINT
Briefly: Ca-releasing activity (increase in intracellular calcium) in CHO-GHSR62 cells, FLIPR. The assay is classed as cell-based. The note with it: CHO-GHSR62 cells (CHO cells expressing rat GHS receptor), FLIPR; read-out: Ca-releasing activity EC50. An outline of the steps:
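CHO cells stably expressing full-length rat GHS-R (CHO-GHSR62) were cultured 12–15 h, loaded with 4 μM Fluo4 for 1 h and washed with Hank's BSS containing 20 mM Hepes and 2.5 mM probenecid. Ca-releasing activity of ghrelin peptides, fragments or derivatives was read by FLIPR as the fluorescence change after sample addition.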
Background: Calcium assays in cells follow changes in intracellular calcium, usually with a dye or a luminescent sensor.

A further assay has as its system IGS-SD strain rats. Briefly: GH-releasing activity of long-chain ghrelin derivatives in rat (plasma GH 15 min after i.v.). The class given is in vivo. The note with it: for GH level in plasma in 15 min. after administration, M ± S.D.: n=3; for GH level in plasma in 15 min. after administration, individual rats (Rat 1-3): rats under Nembutal. As for the experimental part: Fifteen minutes after administration, plasma was collected, and the concentration of GH in plasma was measured by radioimmunoassay (Biotrak/Amersham). Separately, 0.2% bovine serum albumin (BSA)-physiological saline, 6 nmol/kg rGhrelin and hGhrelin, or 80 nmol/kg Ipamorelin (Compound 80) was administered into other rats as the control, respectively, and the concentrations of GH in plasma in 15 minutes after administration were compared (for each sample, n=3).

A word on the EC50: it is the concentration that produces a half-maximal response. With `CC(C)C[C@H](NC(=O)[C@H](CCCCN)NC(=O)[C@H](C)NC(=O)[C@@H]1CCCN1C(=O)[C@@H]1CCCN1C(=O)[C@H](CCCCN)NC(=O)[C@H](CCCCN)NC(=O)[C@H](CO)NC(=O)[C@H](CCC(=O)O)NC(=O)[C@H](CCCCN)NC(=O)[C@H](CCCNC(=N)N)NC(=O)[C@H](CCC(N)=O)NC(=O)[C@H](CCC(N)=O)NC(=O)[C@@H](NC(=O)[C@H](CCCNC(=N)N)NC(=O)[C@H](CCC(N)=O)NC(=O)[C@H](Cc1c[nH]cn1)NC(=O)[C@H](CCC(=O)O)NC(=O)[C@@H]1CCCN1C(=O)[C@H](CO)NC(=O)[C@H](CC(C)C)NC(=O)[C@H](Cc1ccccc1)NC(=O)[C@H](Cc1ccc2ccccc2c1)NC(=O)[C@H](CO)NC(=O)CN)C(C)C)C(=O)N[C@@H](CCC(N)=O)C(=O)N1CCC[C@H]1C(=O)N[C@@H](CCCNC(=N)N)C(=O)O` [Compound 65, [2-^LNal^3]-hGhrelin], at rat GHS-receptor (GHR-R), the half-maximal effective concentration (EC50) is 8.2 nM. In addition, in the assay on IGS-SD strain rats (dose 100 nmol/kg i.v.), the “GH level in plasma in 15 min. after administration, M ± S.D.” value (shortened to “GH level in plasma … M ± S.D.”) was 1524 ± 147 ng/mL; the “GH level in plasma in 15 min. after administration, individual rats (Rat 1-3)” value (“GH level in plasma … (Rat 1-3)” for short) was 1637 ng/mL and 1576 ng/mL and 1357 ng/mL.

Regarding `CCCCCCCCOC[C@H](NC(=O)[C@H](CO)NC(=O)CN)C(=O)N[C@@H](Cc1ccccc1)C(=O)N[C@@H](CC(C)C)C(=O)N[C@@H](CO)C(=O)N1CCC[C@H]1C(=O)N[C@@H](CCC(=O)O)C(=O)N[C@@H](Cc1c[nH]cn1)C(=O)N[C@@H](CCC(N)=O)C(=O)N[C@@H](CCCNC(=N)N)C(=O)N[C@H](C(=O)N[C@@H](CCC(N)=O)C(=O)N[C@@H](CCC(N)=O)C(=O)N[C@@H](CCCNC(=N)N)C(=O)N[C@@H](CCCCN)C(=O)N[C@@H](CCC(=O)O)C(=O)N[C@@H](CO)C(=O)N[C@@H](CCCCN)C(=O)N[C@@H](CCCCN)C(=O)N1CCC[C@H]1C(=O)N1CCC[C@H]1C(=O)N[C@@H](C)C(=O)N[C@@H](CCCCN)C(=O)N[C@@H](CC(C)C)C(=O)N[C@@H](CCC(N)=O)C(=O)N1CCC[C@H]1C(=O)N[C@@H](CCCNC(=N)N)C(=O)O)C(C)C` [Compound 17, [Ser^3(Octyl)]-hGhrelin], at rat GHS-receptor (GHR-R), the EC50 turned out to be 1.2 nM. Also, in the assay on IGS-SD strain rats (dose 18 nmol/kg i.v.), the “GH level in plasma … M ± S.D.” value was determined as 1657 ± 75 ng/mL; the “GH level in plasma … (Rat 1-3)” value is 1626 ng/mL and 1602 ng/mL and 1743 ng/mL. Further, the “GH-releasing activity (in words)” value with IGS-SD strain rats (i.v., plasma GH at 15 minutes) is reported as “strong GH-releasing activity”.

Take `CC(C)(N)C(=O)N[C@@H](Cc1c[nH]cn1)C(=O)N[C@H](Cc1ccc2ccccc2c1)C(=O)N[C@H](Cc1ccccc1)C(=O)N[C@@H](CCCCN)C(N)=O` [Compound 80, [Aib^1, His^2, ^DNal^3, ^DPhe^4, Lys^5]-Ghrelin (1-5)-amide, reference compound] (H-[Aib]H[d2Nal][dF]K-NH2): the EC50 at rat GHS-receptor (GHR-R) was 2.5 nM. Further, the “GH level in plasma … M ± S.D.” value in the assay on IGS-SD strain rats (dose 80 nmol/kg i.v.) was found to be 607 ± 503 ng/mL. The “GH level in plasma … (Rat 1-3)” value with IGS-SD strain rats (dose 80 nmol/kg i.v., listed as Ipamorelin) was 377 ng/mL and 260 ng/mL and 1184 ng/mL.

Take `CCCCCCCCOC[C@@H](NC(=O)[C@H](CO)NC(=O)CN)C(=O)N[C@H](Cc1ccccc1)C(=O)N[C@@H](CC(C)C)C(=O)N[C@@H](CO)C(=O)N1CCC[C@H]1C(N)=O` [Compound 53, [^DSer^3(Octyl), ^DPhe^4]-Ghrelin (1-7)-amide]: the EC50 on rat GHS-receptor (GHR-R) was over 10000 nM.

For `CCCCCCCCOC[C@H](NC(=O)CCCCN)C(=O)N[C@@H](Cc1ccccc1)C(=O)N[C@@H](CC(C)C)C(N)=O` [Compound 81, [N-Aminopentanoyl, Ser^3(Octyl)]-Ghrelin (3-5)-amide], at rat GHS-receptor (GHR-R), the EC50 stood at 11 nM.
